# Source: US5488060A, “Substituted thiadiazoles, compositions containing them and their use as antimicrobial and marine antifouling agents” (The Dow Chemical Company, priority 1994, dated 1996)
# Like-named read-outs stand apart in the source and are kept apart here.
# Key:
# Assay type in all cases: cell-based
# [1] = system: Salmonella choleraesuis (Se); assay: Minimum inhibitory concentration (MIC) in nutrient agar, Salmonella choleraesuis; settings: Salmonella enterica
# Outline: (§1)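 Bacteria (10^8 CFU/mL suspensions) were replicator-spotted onto nutrient agar plates, neutral pH 6.8 or alkaline pH 8.2, containing test compound at 0–500 ppm. After 48 h at 30° C, growth inhibition was read to give the MIC.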
# Proteus vulgaris (Pv) = assay: Minimum inhibitory concentration (MIC) in nutrient agar, Proteus vulgaris
# Outline: as §1
# [2] = system: Enterobacter aerogenes (Ea); assay: Minimum inhibitory concentration (MIC) in nutrient agar, Enterobacter aerogenes; settings: Klebsiella aerogenes
# Outline: as §1
# [3] = system: Saccharomyces cerevisiae (Sc); assay: Minimum inhibitory concentration (MIC) in malt yeast agar, Saccharomyces cerevisiae
# Outline: (§2)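 Malt yeast agar pH 5.5 + cpd (from 1% soln in acetone/water) at final 500–zero ppm, poured at 48 °C, dried 24 h. Inoculum: 7-day 30 °C slants suspended in saline/octylphenoxy polyethoxy ethanol, diluted 1:9, replicator-spotted. Incubated 30 °C; read 48 h yeast, 72 h fungi.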
# Candida albicans (Ca) = assay: Minimum inhibitory concentration (MIC) in malt yeast agar, Candida albicans
# Outline: as §2
# [4] = system: Penicillium chrysogenum (Pc); assay: Minimum inhibitory concentration (MIC) in malt yeast agar, Penicillium chrysogenum; settings: 72 h, pH 5.5, read-out: Minimum Inhibitory Concentration, PC
# Outline: (§3)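 Plates of pH 5.5 malt yeast agar carried test compound dispersed from a one percent acetone–water solution, final 500 to zero ppm. After diluted slant-culture suspensions were applied, plates were kept at 30 °C and examined at 72 h for fungi, 48 h for yeast.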
# Aspergillus niger (An) = assay: Minimum inhibitory concentration (MIC) in malt yeast agar, Aspergillus niger; settings: 72 h, pH 5.5, read-out: Minimum Inhibitory Concentration, An
# Outline: as §3
# [5] = pH 6.8, nutrient agar, 30° C., 48 hours, read-out: Minimum Inhibitory Concentration, SC
# [6] = pH 6.8, nutrient agar, 30° C., 48 hours, read-out: Minimum Inhibitory Concentration, Pv
# [7] = 48 h, pH 8.2, read-out: Minimum Inhibitory Concentration, Ea
Structure (SMILES),"MIC ([1]; 48 h, pH 8.2, read-out: Minimum Inhibitory Concentration, SC) [µg/mL]","MIC [1, 5] [µg/mL]","MIC (Proteus vulgaris (Pv); 48 h, pH 8.2, read-out: Minimum Inhibitory Concentration, Pv) [µg/mL]",MIC (Proteus vulgaris (Pv); [6]) [µg/mL],"MIC [2, 7] [µg/mL]","MIC ([2]; pH 6.8, nutrient agar, 30° C., 48 hours, read-out: Minimum Inhibitory Concentration, Ea) [µg/mL]","MIC ([3]; pH 5.5, malt yeast agar, 30° C., 48 hours for yeast, read-out: Minimum Inhibitory Concentration, SC) [µg/mL]","MIC (Candida albicans (Ca); 48 h, pH 5.5, read-out: Minimum Inhibitory Concentration, Ca) [µg/mL]",MIC [4] [µg/mL],"MIC ([1]; pH 8.2, nutrient agar, 30° C., 48 hours, read-out: Minimum Inhibitory Concentration, SC) [µg/mL]","MIC (Proteus vulgaris (Pv); pH 8.2, nutrient agar, 30° C., 48 hours, read-out: Minimum Inhibitory Concentration, Pv) [µg/mL]","MIC ([2]; 48 h, pH 6.8, read-out: Minimum Inhibitory Concentration, Ea) [µg/mL]",MIC (Aspergillus niger (An)) [µg/mL],"MIC ([3]; 48 h, pH 5.5, read-out: Minimum Inhibitory Concentration, SC) [µg/mL]","MIC (Candida albicans (Ca); pH 5.5, malt yeast agar, 30° C., 48 hours for yeast, read-out: Minimum Inhibitory Concentration, Ca) [µg/mL]"
"N#CSc1nsnc1-c1ccccc1 [Example I, 4-Phenyl-3-thiocyanato-1,2,5-thiadiazole]",> 500,50,500,50,500,100,< 1,2.5,–,–,–,–,–,–,–
"N#CSCSc1nsnc1-c1ccccc1 [Example XVI, 4-Phenyl-3-thiocyanato-methylthio-1,2,5-thiadiazole]",–,25,–,50,500,–,–,–,2.5,250,250,50,2.5,2.5,5
